Read-outs that look alike come from different tables or passages of the source.
What was measured:
Type in all cases: cell-based
VCaP cells = experiment: VCaP cell proliferation assay (Cell Titer Glo), GI50; conditions: Homo sapiens, VCaP cells, 0.1 nM R1881, read-out: GI50, Inhibition of VCaP Proliferation
Method: 2. VCaP Cell Proliferation Assay.
VCaP cells are plated 7,500/well 200 μL/well in VCaP assay medium [Phenol red free RPMI (Gibco Cat #11835-030); 5% Charcoal Stripped (Dextran treated) FBS (Omega Scientific, Cat #FB-04); Pen/Strep Life Technologies (Gibco Cat #: 10378-016); 0.1 nM R1881 (Sigma, Cat #R0908) is added upon the start of the assay, not during initial plating of the cells).
The assay was performed as follows: the cells are grown for a minimum of 3 days to deplete androgens; dosing of PROTACs and R1881 is performed as for AR ELISA; the baseline reading of Cell Titer Glo can be performed on day of dosing.
VCaP cells with 0.1 nM R1881 will double once in 4 days. Gently draw off 110 μL of media so as not to disturb the adherent cells; add 110 μL of CTG; incubate with slow shaking for 20 minutes; and read luminescence on a plate reader.

Androgen Receptor [1] = target: T1, Androgen Receptor (Homo sapiens, UniProt P10275); experiment: Androgen Receptor ELISA assay (PathScan AR ELISA) in VCaP cells: AR degradation, Dmax and DC50
T1 construct: endogenous in cells; host or cells: VCaP cells
T1 sequence (P10275 1-920): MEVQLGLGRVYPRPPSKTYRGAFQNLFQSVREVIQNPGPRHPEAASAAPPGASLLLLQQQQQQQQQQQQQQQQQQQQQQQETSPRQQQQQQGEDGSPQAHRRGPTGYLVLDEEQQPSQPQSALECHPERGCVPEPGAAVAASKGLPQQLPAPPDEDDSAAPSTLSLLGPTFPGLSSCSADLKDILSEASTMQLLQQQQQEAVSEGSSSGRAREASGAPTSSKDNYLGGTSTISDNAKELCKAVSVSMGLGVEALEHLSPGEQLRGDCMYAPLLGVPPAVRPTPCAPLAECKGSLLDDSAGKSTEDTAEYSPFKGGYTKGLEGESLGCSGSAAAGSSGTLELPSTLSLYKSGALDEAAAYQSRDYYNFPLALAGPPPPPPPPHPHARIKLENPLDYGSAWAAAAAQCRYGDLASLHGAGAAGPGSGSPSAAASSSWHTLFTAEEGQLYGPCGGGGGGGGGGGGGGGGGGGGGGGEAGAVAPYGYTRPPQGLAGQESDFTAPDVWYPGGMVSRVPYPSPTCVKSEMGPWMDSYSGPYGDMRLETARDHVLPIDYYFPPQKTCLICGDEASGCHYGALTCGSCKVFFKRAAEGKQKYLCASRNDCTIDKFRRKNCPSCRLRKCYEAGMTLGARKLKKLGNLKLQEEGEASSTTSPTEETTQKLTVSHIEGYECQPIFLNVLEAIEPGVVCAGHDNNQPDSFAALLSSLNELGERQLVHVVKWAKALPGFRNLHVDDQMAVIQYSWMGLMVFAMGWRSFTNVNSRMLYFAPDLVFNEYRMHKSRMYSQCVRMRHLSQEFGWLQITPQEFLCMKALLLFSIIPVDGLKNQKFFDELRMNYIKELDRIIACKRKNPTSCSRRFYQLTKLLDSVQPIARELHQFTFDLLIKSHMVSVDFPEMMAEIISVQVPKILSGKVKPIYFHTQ
Procedure, shortened: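 VCaP cells, 30,000/well, grown ≥3 days in phenol red-free RPMI with 5% charcoal-stripped FBS; compound added in 0.1% DMSO with 0.1 nM R1881, 7 half-log doses, 24 h. Lysate AR quantified by PathScan sandwich ELISA, HRP/TMB read at 450 nm, giving DC50 and Dmax.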

Androgen Receptor [2] = target: T2, Androgen Receptor (Homo sapiens, UniProt P10275+P40337, T878A); experiment: Androgen Receptor ELISA assay (PathScan AR ELISA) in LNCaP cells: AR degradation, Dmax and DC50; conditions: for DC50: concentration that caused 50% Androgen Receptor degradation; for Dmax: highest percentage of Androgen Receptor degradation
T2 construct: Compounds have been evaluated in this assay in LNCaP and/or VCaP cells utilizing similar protocols; endogenous in cells; host or cells: LNCaP cells

[3] = VCaP, highest percentage of Androgen Receptor degradation observed, VCaP cells (Table 32); read-out: VCaP Dmax (%)
[4] = concentration that caused 50% Androgen Receptor degradation, VCaP cells (Table 32); read-out: VCaP DC50
[5] = read-out: VCaP DC50; VCaP cells; concentration that caused 50% Androgen Receptor degradation

T2 sequence (P10275 whole entry T878A): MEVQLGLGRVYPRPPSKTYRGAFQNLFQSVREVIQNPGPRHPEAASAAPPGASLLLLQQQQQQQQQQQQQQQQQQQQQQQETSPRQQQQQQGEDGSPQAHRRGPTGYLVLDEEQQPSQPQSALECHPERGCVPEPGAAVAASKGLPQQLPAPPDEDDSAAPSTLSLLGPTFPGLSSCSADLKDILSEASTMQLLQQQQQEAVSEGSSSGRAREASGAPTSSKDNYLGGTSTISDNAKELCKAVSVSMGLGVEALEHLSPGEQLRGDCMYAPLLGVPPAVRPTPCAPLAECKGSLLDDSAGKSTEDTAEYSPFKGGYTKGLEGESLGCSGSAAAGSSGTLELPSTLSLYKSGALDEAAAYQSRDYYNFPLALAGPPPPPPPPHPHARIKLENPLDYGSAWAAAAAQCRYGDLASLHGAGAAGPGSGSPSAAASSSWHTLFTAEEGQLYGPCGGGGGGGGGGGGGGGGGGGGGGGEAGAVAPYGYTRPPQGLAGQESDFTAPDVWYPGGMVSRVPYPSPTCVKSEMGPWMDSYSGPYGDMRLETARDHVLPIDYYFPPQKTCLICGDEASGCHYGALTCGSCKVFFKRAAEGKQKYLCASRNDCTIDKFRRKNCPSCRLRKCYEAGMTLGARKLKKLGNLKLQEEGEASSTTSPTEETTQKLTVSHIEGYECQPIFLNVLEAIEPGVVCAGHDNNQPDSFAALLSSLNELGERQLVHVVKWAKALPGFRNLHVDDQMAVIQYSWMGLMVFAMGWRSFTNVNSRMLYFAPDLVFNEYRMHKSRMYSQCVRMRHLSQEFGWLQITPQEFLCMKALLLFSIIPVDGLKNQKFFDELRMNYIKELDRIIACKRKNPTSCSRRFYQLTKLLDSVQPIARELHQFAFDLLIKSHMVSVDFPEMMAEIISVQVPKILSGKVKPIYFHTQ
T2 sequence (P40337 whole entry): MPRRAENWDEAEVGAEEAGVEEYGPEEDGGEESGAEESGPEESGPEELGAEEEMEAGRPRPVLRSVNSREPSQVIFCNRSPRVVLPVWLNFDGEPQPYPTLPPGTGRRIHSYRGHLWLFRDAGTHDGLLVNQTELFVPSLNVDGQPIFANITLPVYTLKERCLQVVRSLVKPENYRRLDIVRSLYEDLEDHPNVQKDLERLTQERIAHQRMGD
T2 sequence (Q15369 whole entry partner): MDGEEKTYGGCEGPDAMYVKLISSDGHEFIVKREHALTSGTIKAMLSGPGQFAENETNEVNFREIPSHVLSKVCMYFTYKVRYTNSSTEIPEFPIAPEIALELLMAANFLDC
T2 sequence (Q15370 whole entry partner): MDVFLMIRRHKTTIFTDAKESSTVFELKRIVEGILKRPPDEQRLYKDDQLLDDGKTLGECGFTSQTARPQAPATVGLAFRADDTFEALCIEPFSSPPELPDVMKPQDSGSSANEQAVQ

| GI50 (VCaP cells; Table 38 (ABM)) [nM] | Compound | GI50 (VCaP cells; Table 37) [nM] | Dmax (Androgen Receptor [1]; VCaP, read-out: VCaP Dmax (%)) [%] | further results |
| --- | --- | --- | --- | --- |
| 51 to 250 | CC(C)(C)OC(=O)N[C@H]1C(C)(C)[C@H](Oc2ccc(C#N)c(Cl)c2)C1(C)C [ABM-29] | – | – | – |
| 51 to 250 | CC1(C)[C@H](NC(=O)c2cnc(N)cn2)C(C)(C)[C@H]1Oc1ccc(C#N)c(Cl)c1 [ABM-31] | – | – | – |
| 51 to 250 | COc1ccc(C(=O)N[C@H]2C(C)(C)[C@H](Oc3ccc(C#N)c(Cl)c3)C2(C)C)cc1 [ABM-33] | – | – | – |
| ≥ 251 | CC1(C)[C@H](NC(=O)c2cnn(CCO)c2)C(C)(C)[C@H]1Oc1ccc(C#N)c(Cl)c1 [ABM-34] | – | – | – |
| ≤ 50 | CC1(C)[C@H](NC(=O)c2ccc(NCCCCCO)cc2)C(C)(C)[C@H]1Oc1ccc(C#N)c(Cl)c1 [ABM-36] | – | – | – |
| ≤ 50 | CC(C)(C)OC(=O)COCCCCCNc1ccc(C(=O)N[C@H]2C(C)(C)[C@H](Oc3ccc(C#N)c(Cl)c3)C2(C)C)cc1 [ABM-37] | – | – | – |
| – | Cc1ncsc1-c1ccc(CNC(=O)[C@@H]2C[C@@H](O)CN2C(=O)[C@@H](NC(=O)COC[C@@H](O)CCOc2ccc(-c3ccc(N4C(=S)N(c5ccc(C#N)c(C(F)(F)F)c5)C(=O)C4(C)C)cc3)cc2)C(C)(C)C)cc1 [Example 131, (2S,4R)-1-[(2S)-2-{2-[(2S)-4-[4-(4-{3-[4-cyano-3-(trifluoromethyl)phenyl]-5,5-dimethyl-4-oxo-2-sulfanylideneimidazolidin-1-yl}phenyl)phenoxy]-2-hydroxybutoxy]acetamido}-3,3-dimethylbutanoyl]-4-hydroxy-N-{[4-(4-methyl-1,3-thiazol-5-yl)phenyl]methyl}pyrrolidine-2-carboxamide] | 51 to 250 | > 71 | – |
| – | Cc1cc(-c2ccc(N3C(=S)N(c4ccc(C#N)c(C(F)(F)F)c4)C(=O)C3(C)C)cc2)ccc1OCCCCOCC(=O)N[C@H](C(=O)N1C[C@H](O)C[C@H]1C(=O)NCc1ccc(-c2scnc2C)cc1)C(C)(C)C [Example 134, (2S,4R)-1-[(2S)-2-(2-{4-[4-(4-{3-[4-cyano-3-(trifluoromethyl)phenyl]-5,5-dimethyl-4-oxo-2-sulfanylideneimidazolidin-1-yl}phenyl)-2-methylphenoxy]butoxy}acetamido)-3,3-dimethylbutanoyl]-4-hydroxy-N-{[4-(4-methyl-1,3-thiazol-5-yl)phenyl]methyl}pyrrolidine-2-carboxamide] | 51 to 250 | > 71 | DC50 (Androgen Receptor [1]; read-out: VCaP DC50; concentration that caused 50% Androgen Receptor degradation, VCaP cells (Table 32)): < 50 nM |
| – | Cc1ncoc1-c1ccc([C@H](C)NC(=O)[C@@H]2C[C@@H](O)CN2C(=O)[C@@H](NC(=O)COCCCCCOc2ccc(C(=O)N[C@H]3C(C)(C)[C@H](Oc4ccc(C#N)c(Cl)c4)C3(C)C)cc2)C(C)(C)C)cc1 [Example 156, (2S,4R)-1-[(2S)-3,3-dimethyl-2-(2-{[5-(4-{[trans--3-(3-chloro-4-cyanophenoxy)-2,2,4,4-tetramethylcyclobutyl]carbamoyl]phen-oxy)pentyl]oxy}acetamido)butanoyl]-4-hydroxy-N-[(1S)-1-[4-(4-methyl-1,3-oxazol-5-yl)phenyl]ethyl]pyrrolidine-2-carboxamide] | ≤ 50 | – | Dmax (Androgen Receptor [1]; [3]): > 71%; DC50 (Androgen Receptor [1]; [4]): < 50 nM |
| – | Cc1ncsc1-c1ccc([C@H](C)NC(=O)[C@@H]2C[C@@H](O)CN2C(=O)[C@@H](NC(=O)COCCCCCOc2ccc(C(=O)N[C@H]3C(C)(C)[C@H](Oc4ccc(C#N)c(Cl)c4)C3(C)C)cc2)C(C)(C)C)cc1 [Example 157, (2S,4R)-1-[(2S)-3,3-dimethyl-2-(2-{[5-(4-{[trans-3-(3-chloro-4-cyanophenoxy)-2,2,4,4-tetramethylcyclobutyl]carbamoyl}phen-oxy)pentyl]oxy}acetamido)butanoyl]-4-hydroxy-N-[(1S)-1-[4-(4-methyl-1,3-thiazol-5-yl)phenyl]ethyl]pyrrolidine-2-carboxamide] | ≤ 50 | – | Dmax (Androgen Receptor [1]; [3]): > 71% |
| – | CC(C)(C)[C@H](NC(=O)COCCCCOc1ccc(C(=O)N[C@H]2C(C)(C)[C@H](Oc3ccc(C#N)c(Cl)c3)C2(C)C)cc1)C(=O)N1C[C@H](O)C[C@H]1C(=O)NCc1ccc(Cl)cc1 [Example 169, (2S,4R)-N-[(4-chlorophenyl)methyl]-1-[(2S)-3,3-dimethyl-2-{2-[4-(4-{[trans-3-(3-chloro-4-cyanophenoxy)-2,2,4,4-tetramethylcyclobutyl]carbamoyl}phenoxy)butoxy]acetamido}butanoyl]-4-hydroxypyrrolidine-2-carboxamide] | 51 to 250 | – | Dmax (Androgen Receptor [1]; [3]): 51 to 70%; DC50 (Androgen Receptor [1]; [4]): < 50 nM |
| – | CC(C)(C)[C@H](NC(=O)COCCCCOc1ccc(C(=O)N[C@H]2C(C)(C)[C@H](Oc3ccc(C#N)c(Cl)c3)C2(C)C)cc1)C(=O)N1C[C@H](O)C[C@H]1C(=O)NCc1ccc(C#N)cc1 [Example 170, (2S,4R)-N-[(4-cyanophenyl)methyl]-1-[(2S)-3,3-dimethyl-2-{2-[4-(4-{[trans-3-(3-chloro-4-cyanophenoxy)-2,2,4,4-tetramethylcyclobutyl]carbamoyl}phenoxy)butoxy]acetamido}butanoyl]-4-hydroxypyrrolidine-2-carboxamide] | ≤ 50 | – | Dmax (Androgen Receptor [1]; [3]): > 71%; DC50 (Androgen Receptor [1]; [4]): < 50 nM |
| – | Cc1ncsc1-c1ccc(CNC(=O)[C@@H]2C[C@@H](O)CN2C(=O)[C@@H](NC(=O)CCOc2ccc(CCOc3ccc(N4C(=S)N(c5ccc(C#N)c(C(F)(F)F)c5)C(=O)C4(C)C)cc3)cc2)C(C)(C)C)cc1 [Example 306] | – | 51 to 70 | DC50 (Androgen Receptor [2]): < 50 nM; Dmax (Androgen Receptor [2]): > 71% |
| – | Cc1ncsc1-c1ccc(CNC(=O)[C@@H]2C[C@@H](O)CN2C(=O)[C@@H](NC(=O)COCCCOCCCOc2ccc(CN3C(=S)N(c4ccc(C#N)c(C(F)(F)F)c4)C(=O)C3(C)C)cc2)C(C)(C)C)cc1 [Example 307] | – | 51 to 70 | DC50 (Androgen Receptor [2]): 51 to 500 nM; Dmax (Androgen Receptor [2]): 51 to 70%; DC50 (Androgen Receptor [1]; [5]): < 50 nM |
| – | Cc1ncsc1-c1ccc(CNC(=O)[C@@H]2C[C@@H](O)CN2C(=O)[C@@H](NC(=O)COCCCOCCCCOc2ccc(CN3C(=S)N(c4ccc(C#N)c(C(F)(F)F)c4)C(=O)C3(C)C)cc2)C(C)(C)C)cc1 [Example 308] | – | 51 to 70 | DC50 (Androgen Receptor [2]): 51 to 500 nM; Dmax (Androgen Receptor [2]): 51 to 70%; DC50 (Androgen Receptor [1]; [5]): < 50 nM |
| – | Cc1ncsc1-c1ccc(CNC(=O)[C@@H]2C[C@@H](O)CN2C(=O)[C@@H](NC(=O)CCCOCCN2CCC(c3ccc(N4C(=S)N(c5ccc(C#N)c(C(F)(F)F)c5)C(=O)C4(C)C)cc3)CC2)C(C)(C)C)cc1 [Example 309] | – | 26 to 50 | DC50 (Androgen Receptor [2]): > 501 nM; Dmax (Androgen Receptor [2]): 26 to 50%; DC50 (Androgen Receptor [1]; [5]): < 50 nM |
| – | Cc1ncsc1-c1ccc(CNC(=O)[C@@H]2C[C@@H](O)CN2C(=O)[C@@H](NC(=O)C(C)(C)C(O)CCCOCCCCCOc2ccc(N3C(=S)N(c4ccc(C#N)c(C(F)(F)F)c4)C(=O)C3(C)C)cc2)C(C)(C)C)cc1 (stereo partly shown) [Example 310] | – | < 25 | DC50 (Androgen Receptor [2]): > 501 nM; Dmax (Androgen Receptor [2]): 26 to 50% |

| Compound | GI50 (VCaP cells; Table 38 (ABM)) [nM] | GI50 (VCaP cells; Table 37) [nM] | Dmax (Androgen Receptor [1]; VCaP, read-out: VCaP Dmax (%)) [%] | further results |
| --- | --- | --- | --- | --- |
| CC1(C)[C@H](N)C(C)(C)[C@H]1Oc1ccc(C#N)c(Cl)c1 [ABM-26] | 51 to 250 | – | – | – |
| CC1(C)[C@H](N)C(C)(C)[C@@H]1Oc1ccc(C#N)c(Cl)c1 [ABM-27] | ≥ 251 | – | – | – |
| CC1(C)[C@H](NC(=O)c2ccc(N)cc2)C(C)(C)[C@H]1Oc1ccc(C#N)c(Cl)c1 [ABM-30] | ≤ 50 | – | – | – |
